Results taken from patent US11066436B2, “5′-phosphorothiolate mRNA 5′-end (cap) analogs, mRNA comprising the same, method of obtaining and uses thereof” (Uniwersytet Warszawski, priority 2016, dated 2021).
“Also recorded” adds a separate entry of the source.

Key:
[1] = target: T1, human DcpS enzyme (hDcpS) (Homo sapiens, UniProt Q96C86); test: Susceptibility of cap analogs to degradation by DcpS enzyme (RP-HPLC); type: biochemical; details: for DcpS susceptibility: cap analog 20 μM, hDcpS 100 nM, RP-HPLC; for hydrolysis by hDcpS: tested as substrates of hDcpS, RP HPLC
T1 construct: made in house
T1 sequence (Q96C86 1-337): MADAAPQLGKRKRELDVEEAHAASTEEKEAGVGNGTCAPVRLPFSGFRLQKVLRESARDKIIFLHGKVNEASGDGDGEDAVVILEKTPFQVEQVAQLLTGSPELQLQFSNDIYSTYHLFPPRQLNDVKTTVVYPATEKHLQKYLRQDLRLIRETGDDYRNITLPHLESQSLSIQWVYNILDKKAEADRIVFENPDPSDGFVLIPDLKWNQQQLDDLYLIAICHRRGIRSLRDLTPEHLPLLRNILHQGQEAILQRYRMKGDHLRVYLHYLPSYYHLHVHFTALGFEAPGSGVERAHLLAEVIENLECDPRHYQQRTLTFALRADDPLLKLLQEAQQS
Procedure: Test 1. The Susceptibility Study of Analogs to Degradation by DcpS Enzyme.
The aim of the test was to check if new 5′-thiophosphate cap analogs are hydrolyzed by human DcpS enzyme (hDcpS). Recombinant human protein encoding DcpS enzyme was expressed as described previously (Kowalska, Lewdorowicz et al. 2008). The susceptibility of new analogs to hDcpS hydrolysis is tested in 50 mM Tris-HCl buffer containing 200 mM KCl and 0.5 mM EDTA. Reaction mixture includes the tested cap analog (20 μM) and hDcpS enzyme (100 nM) in 400 μl of buffer. At the appropriate intervals 100 μl sample is collected from the reaction mixture. Sample is incubated at 98° C. for 2.5 min, and then cooled to 0° C. and analyzed on RP-HPLC under conditions described in general informations. In tests also commercially available inhibitor of DcpS was tested, the compound RG3039 (no. 000) (https://www.mda.org/quest/fda-approves-phase-1-clinical-trial-rg3039-sma), GppSG (no. 19), GpppSG (no. 20), as well m^7GpppG (no. 0) and m^7Gpp (no. 00) as controls. Exemplary results obtained are shown on FIG. 5 and Table 5.

[2] = target: T2, hDcpS enzyme (Homo sapiens, UniProt Q96C86); test: IC50 determination for selected inhibitors of DcpS (fluorescence, m^7GMPF probe); type: biochemical; details: for IC50: m^7GMPF 60 μM, hDcpS 50 nM, tested compound 0-50 μM
T2 construct: made in house
T2 sequence (Q96C86 1-337): T1 sequence (Q96C86 1-337)
Procedure: Test 2. IC50 Determination for Selected Inhibitors
The buffer in this test and in the test 1 is the same. Ten mixture reactions were prepared at the same time and each of them contained a m^7GMPF (60 μM), hDcpS enzyme (50 nM) and the tested compound in concentration range between 0-50 μM in 200 μl of buffer. After appropriate time, when 30% of substrate were converted into product without inhibitor, the reaction was stopped by mixing with 100 μl of ACN. Samples of 25 μl were taken for analysis, followed by mixing with 90 μl of TBDS-fluorescein solution of concentration 2.5 μM in DMSO and incubated for 60 min. Next, 100 μl of 200 mM HEPES buffer pH=7.0 was added to the samples and the fluorescence was measured as described in general information. Based on the results, dependence of inhibitor concentration vs. fluorescence were plotted and the IC50 values were determined by fitting theoretical curve to data.

Compound | DcpS susceptibility [1] | hydrolysis by hDcpS [1] | IC50 [2] [nM] | inhibition of hDcpS ([2]; fluorescence method and fluorogenic probe)
C[n+]1cn([C@@H]2O[C@H](CSP(=O)(O)OP(=O)([S-])OP(=O)(O)SC[C@H]3O[C@@H](n4cnc5c(=O)[nH]c(N)nc54)C(O)C3O)C(O)C2O)c2nc(N)nc(O)c21 (single isomer, unassigned) [compound 33] | resistant/inhibitor | stability in the presence of DcpS enzyme | 260 ± 40 | 
C[n+]1cn([C@@H]2O[C@H](CSP(=O)(O)OP(=O)([S-])OP(=O)(O)SC[C@H]3O[C@@H](n4cnc5c(=O)[nH]c(N)nc54)C(O)C3O)C(O)C2O)c2nc(N)nc(O)c21 (single isomer, unassigned) [compound 34] | resistant/inhibitor | stability in the presence of DcpS enzyme | 51 ± 8 | best inhibitory properties
C[n+]1cn([C@@H]2O[C@H](COP(=O)(O)OP(=O)([O-])SC[C@H]3O[C@@H](n4cnc5c(=O)[nH]c(N)nc54)C(O)C3O)C(O)C2O)c2nc(N)nc(O)c21 (stereo in doubt) [compound 21] | hydrolyzable | hydrolyzed |  | 
C[n+]1cn([C@@H]2O[C@H](CSP(=O)([O-])OP(=O)(O)OC[C@H]3O[C@@H](n4cnc5c(=O)[nH]c(N)nc54)C(O)C3O)C(O)C2O)c2nc(N)nc(O)c21 (stereo in doubt) [compound 23] | resistant/inhibitor | stability in the presence of DcpS enzyme | 2810 ± 510 | 
C[n+]1cn([C@@H]2O[C@H](COP(=O)(O)OP(=O)(O)O)[C@@H](O)[C@H]2O)c2nc(N)nc([O-])c21 [compound 00] | resistant/inhibitor |  | 4300 ± 780 | 
C[n+]1cn([C@@H]2O[C@H](CSP(=O)([O-])OP(=O)(O)O)C(O)[C@@H]2O)c2nc(N)nc(O)c21 (stereo partly drawn) [compound 12] | resistant/inhibitor | stability in the presence of DcpS enzyme | 1930 ± 380 | 
Nc1nc2c(ncn2[C@@H]2O[C@H](COP(=O)(O)OP(=O)(O)SC[C@H]3O[C@@H](n4cnc5c(=O)[nH]c(N)nc54)[C@H](O)[C@@H]3O)[C@@H](O)[C@H]2O)c(=O)[nH]1 [compound 19] | hydrolyzable |  | > 100000 | 
Nc1nc2c(ncn2[C@@H]2O[C@H](COP(=O)(O)OP(=O)(O)OP(=O)(O)SC[C@H]3O[C@@H](n4cnc5c(=O)[nH]c(N)nc54)[C@H](O)[C@@H]3O)[C@@H](O)[C@H]2O)c(=O)[nH]1 [compound 20] | hydrolyzable |  | > 100000 | 
C[n+]1cn([C@@H]2O[C@H](COP(=O)(O)OP(=O)(O)OP(=O)([O-])SC[C@H]3O[C@@H](n4cnc5c(=O)[nH]c(N)nc54)C(O)C3O)C(O)C2O)c2nc(N)nc(O)c21 (stereo partly drawn) [compound 22] | hydrolyzable | hydrolyzed |  | 
C[n+]1cn([C@@H]2O[C@H](CSP(=O)([O-])OP(=O)(O)OP(=O)(O)OC[C@H]3O[C@@H](n4cnc5c(=O)[nH]c(N)nc54)C(O)C3O)C(O)C2O)c2nc(N)nc(O)c21 (stereo partly drawn) [compound 24] | resistant/inhibitor | resistant; also recorded: stability in the presence of DcpS enzyme | 840 ± 70 | 
C[n+]1cn([C@@H]2O[C@H](CSP(=O)([O-])OP(=O)(O)CP(=O)(O)OC[C@H]3O[C@@H](n4cnc5c(=O)[nH]c(N)nc54)C(O)C3O)C(O)C2O)c2nc(N)nc(O)c21 (stereo partly drawn) [compound 25] | resistant/inhibitor | stability in the presence of DcpS enzyme | 6250 ± 1220 | 
COC1C(O)[C@@H](CSP(=O)([O-])OP(=O)(O)OP(=O)(O)OC[C@H]2O[C@@H](n3cnc4c(=O)[nH]c(N)nc43)C(O)C2O)O[C@H]1n1c[n+](C)c2c(O)nc(N)nc21 (stereo partly drawn) [compound 26] | resistant/inhibitor | stability in the presence of DcpS enzyme | 12600 ± 5220 | 
C[n+]1cn([C@@H]2O[C@H](CSP(=O)(O)OP(=O)([S-])OP(=O)(O)OC[C@H]3O[C@@H](n4cnc5c(=O)[nH]c(N)nc54)C(O)C3O)C(O)C2O)c2nc(N)nc(O)c21 (stereo partly drawn) [compound 30] | resistant/inhibitor | stability in the presence of DcpS enzyme | 230 ± 40 | 
C[n+]1cn([C@@H]2O[C@H](CSP(=O)(O)OP(=O)([S-])OP(=O)(O)OC[C@H]3O[C@@H](n4cnc5c(=O)[nH]c(N)nc54)C(O)C3O)C(O)C2O)c2nc(N)nc(O)c21 (stereo partly drawn) [compound 31] | resistant/inhibitor | stability in the presence of DcpS enzyme | 170 ± 20 | 
C[n+]1cn([C@@H]2O[C@H](CSP(=O)([O-])OP(=O)(O)OP(=O)(O)SC[C@H]3O[C@@H](n4cnc5c(=O)[nH]c(N)nc54)C(O)C3O)C(O)C2O)c2nc(N)nc(O)c21 (stereo partly drawn) [compound 32] | resistant/inhibitor | stability in the presence of DcpS enzyme | 330 ± 90 | 
C[n+]1cn([C@@H]2O[C@H](COP(=O)(O)OP(=O)([S-])OP(=O)(O)SC[C@H]3O[C@@H](n4cnc5c(=O)[nH]c(N)nc54)C(O)C3O)C(O)C2O)c2nc(N)nc(O)c21 (stereo partly drawn) [compound 35] | hydrolyzable | hydrolyzed |  | 
C[n+]1cn([C@@H]2O[C@H](COP(=O)(O)OP(=O)([S-])OP(=O)(O)SC[C@H]3O[C@@H](n4cnc5c(=O)[nH]c(N)nc54)C(O)C3O)C(O)C2O)c2nc(N)nc(O)c21 (stereo partly drawn) [compound 36] | hydrolyzable | hydrolyzed |  | 
C[n+]1cn([C@@H]2O[C@H](COP(=O)(O)CP(=O)(O)OP(=O)([O-])SC[C@H]3O[C@@H](n4cnc5c(=O)[nH]c(N)nc54)C(O)C3O)C(O)C2O)c2nc(N)nc(O)c21 (stereo partly drawn) [compound 37] | resistant/inhibitor | resistant to hydrolysis; also recorded: stability in the presence of DcpS enzyme | 5670 ± 1010 | 
COC1C(O)[C@@H](COP(=O)(O)OP(=O)(O)OP(=O)([O-])SC[C@H]2O[C@@H](n3cnc4c(=O)[nH]c(N)nc43)C(O)C2O)O[C@H]1n1c[n+](C)c2c(O)nc(N)nc21 (stereo partly drawn) [compound 38] | hydrolyzable | hydrolyzed | 72000 ± 17000 | 
